The test system of one data set is Human Thrombocytes. Briefly: Fibrinogen Binding to Human Thrombocytes (I125-fibrinogen, gel-filtered platelets). The following applies: inhibition of I125-fibrinogen binding to gel-filtered human platelets, ADP, 20 minutes, ambient temperature; read-out: Fibrinogen Binding test IC50. Summed up: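 Gel-filtered human platelets (from citrated PRP, pH 7.4 Tris/citrate/glucose buffer) incubated 20 min at ambient temperature with test compound, CaCl2, ADP and I125-fibrinogen; non-specific binding with 3 mg/ml cold fibrinogen. Platelets spun through silicone oil, bound fibrinogen gamma-counted; IC50 from a concentration series.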

Data set [1] deals with thrombocyte aggregation in platelet-rich plasma. Briefly: Antithrombotic effect: collagen-induced thrombocyte aggregation in platelet-rich plasma (Born and Cross). It counts as cell-based. The settings on record: human platelet-rich plasma, 10 minutes preincubation at 37° C., read-out: Inhibition of platelet aggregation EC50. Summed up:
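Human platelet-rich plasma (citrated 1:10, 3.14%) incubated with compound 10 min at 37 °C, then aggregation triggered by minimal collagen giving irreversible response. Optical density change tracked photometrically (Born and Cross); EC50 determined graphically as 50% inhibition of optical density change.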

A further data set concerns mice. The following applies: mouse, in vivo, 30 mg/kg.
Data set [2] relates to collagen-induced thrombocyte aggregation. Briefly: Collagen-induced thrombocyte aggregation ex vivo after oral administration. The settings on record: Rhesus monkeys, 1 mg/kg. Format: in vivo.

We go through four molecules from patent publication US5276049A, “Cyclic urea derivatives, pharmaceutical compositions containing these compounds and methods of using the same” (Dr. Karl Thomae GmbH, priority 1991, dated 1994).

With `Cc1cn(-c2ccc(C(=N)N)cc2)c(=O)n1-c1ccc(CCC(=O)O)cc1` [Example 1(138), 1-(4-amidino-phenyl)-3-[4-(2-carboxy-ethyl)-phenyl]-4-methyl-3H-imidazol-2-one], in the data set on Human Thrombocytes, the IC50 (usually the concentration that inhibits the measured activity by half) is 21 nM. For the same molecule, the EC50 (in general, the midpoint of the concentration-response curve) in data set [1] came to 40 nM. In the data set with mice (iv), the “death of animals after intravenous administration” value is given as “did not lead to the death of any of the three animals tested”.
Take `N=C(N)c1ccc(N2CCN(c3ccc(CCC(=O)O)cc3)S2(=O)=O)cc1` [1(66), 2-(4-amidino-phenyl)-5-[4-(2-carboxy-ethyl)-phenyl]-3,4-dihydro-2H,5H-1,2,5-thiadiazole-1,1-dioxide]: the IC50 in the data set with Human Thrombocytes came to 9.1 nM. In addition, in data set [1], the EC50 came to 50 nM. The sedation result with mice is “one animal was sedated”.
Consider `COC(=O)NC(=N)c1ccc(-n2nc(C)n(-c3ccc(CCC(=O)OCC(C)C)cc3)c2=O)cc1` [Example 5(18), 4-[4-(2-isobutyloxycarbonyl-ethyl)-phenyl]-2-(4-methoxycarbonylamidino-phenyl)-5-methyl-4H-1,2,4-triazol-3-one], for which the IC50 with Human Thrombocytes is above 10000 nM. Further, the “duration of inhibition of collagen-induced thrombocyte aggregation ex vivo” value in data set [2] was “up to 8 hours”. Also, the EC50 in data set [1] worked out at 8060 nM.
For `Cc1nn(-c2ccc(C(=N)N)cc2)c(=O)n1-c1ccc(CCC(=O)O)cc1` [1(139), 2-(4-amidino-phenyl)-4-[4-(2-carboxy-ethyl)-phenyl]-5-methyl-4H-1,2,4-triazol-3-one], the IC50 in the data set on Human Thrombocytes worked out at 6.8 nM. The concentration for a half-maximal effect (EC50) in data set [1] came to 30 nM. For the same molecule, the sedation result with mice is listed as “one animal was sedated”.
